Assay results reported in patent US4246343A, “Microbial detection and enumeration method and apparatus” (University of Virginia and National Aeronautics & Space …, priority 1979, dated 1981).
Structures can show the parent of a compound that is named as a salt. Where two headings read alike, the source gives them in different places.

What was measured:
S. aureus (ATCC) = assay: Electroanalytically determined MIC, gram-positive bacteria; assay type: cell-based, "Seattle Strain" ATCC 25923; details: Staphylococcus aureus
Excerpt: (§1) Identical lots of media and antimicrobial agents were used in the susceptibility tests performed. The media used were trypticase soy agar (TSA) and TSB from Baltimore Biological Laboratories (BBL), Cockeysville, Maryland. The 12 antimicrobial agents used in the experiments, which were chosen on the basis of their clinical usefulness, were laboratory reference standards including the following antibiotics: penicillin G potassium, caphalothin sodium, tobramycin, vancomycin hydrochloride and streptomycin sulfate obtained from Eli Lilly and Co.; tetracycline and carbenicillin obtained from Pfizer Laboratories; ampicillin and sodium nafcillin from Wyeth Laboratories; kanamycin and methicillin from Bristol Laboratories; gentamicin from Schering.
(§2) The following cultures were obtained from Hoffmann-LaRoche, Inc. and were derived from the American Type Culture Collection (ATCC) organisms as indicated: Escherichia coli, "Seattle Strain" ATCC 25922, Klebsiella pneumoniae ATCC 27736; Pseudomonas aeruginosa, ATCC 9721. These bacteria are gram negative bacteria. The following bacteria are gram positive: Staphylococcus aureus, "Seattle Strain" ATCC 25923; Staphylococcus epiderdimis ATCC 14990; and Streptococcus pyogenes, ATCC 10389. In addition, clinical specimens of these same six organisms were obtained from sensitivity isolates from the University of Virginia Hospital Department of Clinical Pathology Bacteriology Section. These organisms, both pathogenic and non-pathogenic (Staphylococcus epidermidis), were chosen because they are some of the most frequently encountered organisms in clinical isolates.
(§3) Inocula were prepared by making a 100-fold dilution×2 of an overnight TSB culture of the organism to be tested in sterile TSB prewarmed to 35° C. Thus, the total dilution of overnight stock was 10^-4. From the 10^-4 series, 0.3 ml was transferred to a test tube (Falcon, disposable #2057) containing 2.7 ml of TSB if the growth control, or 2.6 ml of TSB plus 0.1 ml of a particular concentration of an appropriate antibiotic to be tested. The antibiotic was weighed on an analytical balance, according to each agent's activity standard, and diluted with sterile distilled water in a volumetric flask to achieve a stock solution of 1000 mcg/ml which was then frozen in small aliquots. Further dilutions as necessary for susceptibility testing were also achieved through the addition of sterile distilled water to this stock concentration. Viable counts were made by plating appropriate dilutions from the 10^-4 series on TSA and counting colonies after 24 hours incubation at 35° C. Viable counts were also made on each microorganism at the time of MDC and again at the end of the 24 hour test period to confirm the minimum inhibitory concentration (MIC).
(§4) The experimental apparatus used in this study to monitor the inhibition of growth due to the addition of antibiotics consisted of test tubes, up to and including 8, size 17×100 mm, each containing a sterilized (by boiling) Pt-SCE combination electrode (Sargent-Welch, S-30101-15), plus TSB, microorganisms, and antibiotic where appropriate, positioned in a 35° C. heating block. Leads from the electrode were connected to a high impedance (greater than 10^8 ohms) potentiometer, or voltage following device, which in turn was connected to a strip chart recorder (Hewlett-Packard type 680M). Microbial growth was measured by an increase in voltage in the negative direction with time as recorded on the strip chart recorder.
(§5) FIG. 12 is a stripchart recording of the antimicrobial response curve of a four channeled expriment involving a clinical specimen of the non-hydrogenproducing, Gram-positive bacteria Staphylococcus epidermidis treated with 0.012, 0.5 and 1.0 mcg/ml of the antibiotic ampicillin as shown in curves B, C and D respectively. […]

S. aureus (clinical) = assay: as above; assay type: cell-based; details: Staphylococcus aureus
Excerpt: as §1, §2, §3, §4, §5

S. epidermidis (ATCC) = assay: as above; assay type: cell-based, Staphylococcus epiderdimis ATCC 14990; details: Staphylococcus epidermidis
Excerpt: as §1, §2, §3, §4, §5

[1] = test system: S. epidermidis (clinical); assay: Electroanalytically determined MIC / antimicrobial response curve, gram-positive bacteria; assay type: cell-based, Staphylococcus epidermidis; details: for MIC: Staphylococcus epidermidis
Excerpt: as §1, §2, §3, §4, §5

P. aeruginosa (ATCC) = assay: Electroanalytically determined MIC, gram-negative bacteria; assay type: cell-based, Pseudomonas aeruginosa, ATCC 9721
Excerpt: as §1, §2, §3, §4, §5

P. aeruginosa (clinical) = assay: as above; assay type: cell-based, Pseudomonas aeruginosa
Excerpt: as §1, §2, §3, §4, §5

E. coli (ATCC) = assay: as above; assay type: cell-based, Escherichia coli, "Seattle Strain" ATCC 25922
Excerpt: as §1, §2, §3, §4, §5

E. coli (clinical) = assay: as above; assay type: cell-based, Escherichia coli
Excerpt: as §1, §2, §3, §4, §5

K. pneumoniae (ATCC) = assay: Electroanalytically determined MIC / antimicrobial response curve, gram-negative bacteria; assay type: cell-based, Klebsiella pneumoniae ATCC 27736
Excerpt: as §1, §2, §3, §4, §5

K. pneumoniae (clinical) = assay: Electroanalytically determined MIC, gram-negative bacteria; assay type: cell-based, Klebsiella pneumoniae
Excerpt: as §1, §2, §3
as §4, with “recorder. […]” for “recorder.”

S. pyogenes (clinical) = assay: Electroanalytically determined MIC, gram-positive bacteria; assay type: cell-based; details: Streptococcus pyogenes, 24 h
Excerpt: as §1, §2, §3, §4, §5

S. pyogenes (ATCC) = assay: as above; assay type: cell-based, ATCC 10389; details: Streptococcus pyogenes, 24 h
Excerpt: as §1, with “Schering. […]” for “Schering.”
as §4, with “Leads from the electrode were connected to a high impedance (greater than 10^8 ohms) potentiometer, or voltage following device, which in turn was connected to a strip chart recorder (Hewlett-Packard type 680M).” left out, “recorder. […]” for “recorder.”

[2] = S. aureus (ATCC), TSB, 35° C., 24 hour test period, read-out: MIC
[3] = S. aureus (clinical), TSB, 35° C., 24 hour test period, read-out: MIC
[4] = S. epidermidis (ATCC), TSB, 35° C., 24 hour test period, read-out: MIC
[5] = S. epidermidis (clinical), TSB, 35° C., 24 hour test period, read-out: MIC
[6] = Pseudomonas aeruginosa, P. aeruginosa (ATCC), TSB, 35° C., 24 hour test period, read-out: MIC
[7] = Pseudomonas aeruginosa, P. aeruginosa (clinical), TSB, 35° C., 24 hour test period, read-out: MIC
[8] = Escherichia coli, E. coli (ATCC), TSB, 35° C., 24 hour test period, read-out: MIC
[9] = Escherichia coli, E. coli (clinical), TSB, 35° C., 24 hour test period, read-out: MIC
[10] = Klebsiella pneumoniae, K. pneumoniae (ATCC), TSB, 35° C., 24 hour test period, read-out: MIC

Compound	MIC (S. aureus (ATCC); 24 h) [µg/mL]	MIC (S. aureus (clinical); 24 h) [µg/mL]	MIC (S. epidermidis (ATCC); 24 h) [µg/mL]	MIC ([1]; 24 h) [µg/mL]	MIC (E. coli (ATCC); Escherichia coli, 24 h) [µg/mL]	MIC (E. coli (clinical); Escherichia coli, 24 h) [µg/mL]	MIC (K. pneumoniae (ATCC); Klebsiella pneumoniae, 24 h) [µg/mL]	MIC (P. aeruginosa (ATCC); Pseudomonas aeruginosa, 24 h) [µg/mL]	MIC (P. aeruginosa (clinical); Pseudomonas aeruginosa, 24 h) [µg/mL]	also measured
CCOc1ccc2ccccc2c1C(=O)N[C@@H]1C(=O)N2[C@@H]1SC(C)(C)[C@@H]2C(=O)O [Naf, sodium nafcillin]	–	–	–	–	–	–	–	–	–	MIC (S. aureus (ATCC); [2]): 0.5 µg/mL; MIC (S. aureus (clinical); [3]): 0.5 µg/mL; MIC (S. epidermidis (ATCC); [4]): 0.5 to 1 µg/mL; MIC [1, 5]: 0.5 to 1 µg/mL
NC[C@H]1O[C@H](O[C@H]2[C@H](O)[C@@H](O[C@H]3O[C@H](CO)[C@@H](O)[C@H](N)[C@H]3O)[C@H](N)C[C@@H]2N)[C@H](N)C[C@@H]1O [Tobra, tobramycin]	–	–	–	–	–	–	–	–	–	MIC (P. aeruginosa (ATCC); [6]): 4 µg/mL; MIC (P. aeruginosa (clinical); [7]): 8 µg/mL
CC1(C)S[C@@H]2[C@H](NC(=O)C(C(=O)O)c3ccccc3)C(=O)N2[C@H]1C(=O)O (stereo partly shown) [Carb, carbenicillin]	–	–	–	–	–	–	–	–	–	MIC (E. coli (ATCC); [8]): 4 µg/mL; MIC (E. coli (clinical); [9]): 5 µg/mL; MIC (K. pneumoniae (ATCC); [10]): > 128 µg/mL; MIC (K. pneumoniae (clinical); Klebsiella pneumoniae, K. pneumoniae (clinical), TSB, 35° C., 24 hour test period, read-out: MIC): > 128 µg/mL; MIC (P. aeruginosa (ATCC); [6]): 64 µg/mL; MIC (P. aeruginosa (clinical); [7]): 64 µg/mL
CN[C@H](CC(C)C)C(=O)N[C@H]1C(=O)N[C@@H](CC(N)=O)C(=O)N[C@H]2C(=O)N[C@H]3C(=O)N[C@H](C(=O)N[C@H](C(=O)O)c4cc(O)cc(O)c4-c4cc3ccc4O)[C@H](O)c3ccc(c(Cl)c3)Oc3cc2cc(c3O[C@@H]2O[C@H](CO)[C@@H](O)[C@H](O)[C@H]2O[C@H]2C[C@](C)(N)[C@H](O)[C@H](C)O2)Oc2ccc(cc2Cl)[C@H]1O [Vanco, vancomycin hydrochloride]	1	2	1.5	2 to 3	–	–	–	–	–	MIC (S. pyogenes (clinical)): 0.5 µg/mL; MIC (S. pyogenes (ATCC)): 0.1 to 0.5 µg/mL
NC[C@H]1O[C@H](O[C@H]2[C@H](O)[C@@H](O[C@H]3O[C@H](CO)[C@@H](O)[C@H](N)[C@H]3O)[C@H](N)C[C@@H]2N)[C@H](O)[C@@H](O)[C@@H]1O [Kana, kanamycin]	0.2	0.5 to 1	0.4	0.6	3	4	3	32 to 64	64	MIC (K. pneumoniae (clinical); Klebsiella pneumoniae, 24 h): 4 µg/mL
CN(C)[C@@H]1C(=O)C(C(N)=O)=C(O)[C@@]2(O)C(=O)C3=C(O)c4c(O)cccc4[C@@](C)(O)[C@H]3C[C@@H]12 [Tetra, tetracycline]	2	2	1 to 2	2	1	4	5 to 6	64	64	MIC (K. pneumoniae (clinical); Klebsiella pneumoniae, 24 h): 5 to 6 µg/mL
COc1cccc(OC)c1C(=O)N[C@@H]1C(=O)N2[C@@H]1SC(C)(C)[C@@H]2C(=O)O [Meth, methicillin]	–	–	–	–	–	–	–	–	–	MIC (S. aureus (ATCC); [2]): 0.7 µg/mL; MIC (S. aureus (clinical); [3]): 0.7 µg/mL; MIC (S. epidermidis (ATCC); [4]): 0.5 to 1 µg/mL; MIC [1, 5]: 0.5 to 1 µg/mL
CC1(C)S[C@@H]2[C@H](NC(=O)Cc3ccccc3)C(=O)N2[C@H]1C(=O)O [Pen G, penicillin G potassium]	0.05	0.05	0.08 to 0.1	0.1	–	–	–	–	–	–
gentamicin	–	–	–	–	–	–	–	–	–	MIC (E. coli (ATCC); E. coli (ATCC), TSB, 35° C., 24 hour test period): 0.5 µg/mL; MIC (E. coli (clinical); E. coli (clinical), TSB, 35° C., 24 hour test period): 1.0 µg/mL; MIC (K. pneumoniae (ATCC); K. pneumoniae (ATCC), TSB, 35° C., 24 hour test period): 0.5 µg/mL; MIC (K. pneumoniae (clinical); K. pneumoniae (clinical), TSB, 35° C., 24 hour test period): 0.5 µg/mL; MIC (P. aeruginosa (ATCC); P. aeruginosa (ATCC), TSB, 35° C., 24 hour test period): 2.0 µg/mL; MIC (P. aeruginosa (clinical); P. aeruginosa (clinical), TSB, 35° C., 24 hour test period): 4.0 µg/mL
CC1(C)S[C@@H]2[C@H](NC(=O)[C@H](N)c3ccccc3)C(=O)N2[C@H]1C(=O)O [Amp, ampicillin]	–	–	–	–	–	–	–	> 128	> 128	MIC (E. coli (ATCC); [8]): 4 µg/mL; MIC (E. coli (clinical); [9]): 6 µg/mL; MIC (K. pneumoniae (ATCC); [10]): 32 µg/mL; MIC (S. aureus (ATCC); [2]): 0.12 to 0.6 µg/mL; MIC (S. aureus (clinical); [3]): 0.12 µg/mL; MIC (S. epidermidis (ATCC); [4]): 1 µg/mL; growth inhibition (antimicrobial response curve, FIG. 12) ([1]; S. epidermidis clinical specimen, 0.012, 0.5 and 1.0 mcg/ml): increasingly inhibited; MIC [1, 5]: 0.8 to 1 µg/mL
[H]/N=C(/N)N[C@H]1[C@H](O)[C@@H](O)[C@H](O[C@@H]2O[C@@H](C)[C@](O)(C=O)[C@H]2O[C@@H]2O[C@@H](CO)[C@H](O)[C@@H](O)[C@@H]2NC)[C@@H](N/C(N)=N\[H])[C@@H]1O [Strep, streptomycin sulfate]	8	8	4	4 to 6	9	9	5 to 6	–	–	MIC (K. pneumoniae (clinical); Klebsiella pneumoniae, 24 h): 6 µg/mL; MIC (S. pyogenes (clinical)): 0.1 µg/mL; MIC (S. pyogenes (ATCC)): 0.1 µg/mL
CC(=O)OCC1=C(C(=O)O)N2C(=O)[C@@H](NC(=O)Cc3cccs3)[C@H]2SC1 [Ceph, cephalothin]	0.15 to 0.2	0.8 to 1.6	0.1	0.5 to 1	8	9	1	> 360	> 360	growth inhibition (antimicrobial response curve, FIG. 13) (K. pneumoniae (ATCC); K. pneumoniae ATCC, 0.3, 0.4, 0.5, 1.0 and 2.0 mcg/ml): increasingly inhibited
